Measured values: PubChem BioAssay AID1845204 (Molecular Pharmacology Branch, DTP, NCI, 2023)

Tested on: HSSY-II tumor spheroid viability
Test: Anticancer human tumor HSSY-II cell line growth inhibition;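 further: spheroids exposed to compounds for seven days before reading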;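 on viability, T/C: percent of DMSO vehicle control viability so 100% = untreated level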
Settings: spheroids with HUVEC and MSC; for IC50: curve of first compound; for viability, T/C: stronger effect = lower value
Procedure, shortened: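 Complex tumor spheroids combined malignant cells with endothelial cells and mesenchymal stem cells. DNA-damaging drugs and DNA repair inhibitors were tested alone and in combination, at half-log dilutions down from clinical Cmax (top 10 microM if Cmax unknown), 0.25% DMSO final.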

[1] = second compound 0.003 µM, first compound 0.0316 µM
[2] = second compound 0.003 µM, first compound 0.1 µM
[3] = second compound 0.003 µM, first compound 0.316 µM
[4] = second compound 0.003 µM, first compound 1 µM
[5] = second compound 0.003 µM, first compound 3.16 µM
[6] = second compound 0.003 µM, first compound 10 µM

CC(C)n1c(=O)n(C)c2cnc3cc(F)c(-c4ccc(OCCCN5CCCCC5)nc4)cc3c21 + COc1cc2c(cc1O)CCNC21CSC2c3c(OC(C)=O)c(C)c4c(c3C(COC1=O)N1C(O)C3Cc5cc(C)c(OC)c(O)c5C(C21)N3C)OCO4
IC50 (second compound 30 pM): > 10000 nM
IC50 (second compound 94.9 pM): 7160 nM
IC50 (second compound 0.0003 µM): < 31.6 nM
IC50 (second compound 0.000949 µM): < 31.6 nM
IC50 (second compound 0.003 µM): < 31.6 nM
viability, T/C (second compound 30 pM, first compound 0.0316 µM): 128%
viability, T/C (second compound 30 pM, first compound 0.1 µM): 120%
viability, T/C (second compound 30 pM, first compound 0.316 µM): 109%
viability, T/C (second compound 30 pM, first compound 1 µM): 114%
viability, T/C (second compound 30 pM, first compound 3.16 µM): 91.9%
viability, T/C (second compound 30 pM, first compound 10 µM): 71.4%
viability, T/C (second compound 94.9 pM, first compound 0.0316 µM): 75.3%
viability, T/C (second compound 94.9 pM, first compound 0.1 µM): 73.6%
viability, T/C (second compound 94.9 pM, first compound 0.316 µM): 70%
viability, T/C (second compound 94.9 pM, first compound 1 µM): 84.1%
viability, T/C (second compound 94.9 pM, first compound 3.16 µM): 73.3%
viability, T/C (second compound 94.9 pM, first compound 10 µM): 40.2%
viability, T/C (second compound 0.0003 µM, first compound 0.0316 µM): 13.2%
viability, T/C (second compound 0.0003 µM, first compound 0.1 µM): 13.8%
viability, T/C (second compound 0.0003 µM, first compound 0.316 µM): 18%
viability, T/C (second compound 0.0003 µM, first compound 1 µM): 17.2%
viability, T/C (second compound 0.0003 µM, first compound 3.16 µM): 13.9%
viability, T/C (second compound 0.0003 µM, first compound 10 µM): 15.2%
viability, T/C (second compound 0.000949 µM, first compound 0.0316 µM): 3.04%
viability, T/C (second compound 0.000949 µM, first compound 0.1 µM): 3.45%
viability, T/C (second compound 0.000949 µM, first compound 0.316 µM): 3.44%
viability, T/C (second compound 0.000949 µM, first compound 1 µM): 5.73%
viability, T/C (second compound 0.000949 µM, first compound 3.16 µM): 4.91%
viability, T/C (second compound 0.000949 µM, first compound 10 µM): 3.99%
viability, T/C [1]: 0.18%
viability, T/C [2]: 0.2%
viability, T/C [3]: 0.22%
viability, T/C [4]: 0.2%
viability, T/C [5]: 0.2%
viability, T/C [6]: 0.31%

CC1COCCN1c1cc(-c2ccnn2C)c2ccnc(-c3ccn[nH]3)c2n1 (stereo not given) + CC[C@@]1(O)C(=O)OCc2c1cc1n(c2=O)Cc2cc3c(CN(C)C)c(O)ccc3nc2-1
IC50 (second compound 0.003 µM): < 31.6 nM
IC50 (second compound 0.00949 µM): < 31.6 nM
IC50 (second compound 0.03 µM): < 31.6 nM
IC50 (second compound 0.0949 µM): < 31.6 nM
IC50 (second compound 0.3 µM): < 31.6 nM
viability, T/C [1]: 6.17%
viability, T/C [2]: 4.36%
viability, T/C [3]: 2.62%
viability, T/C [4]: 1.92%
viability, T/C [5]: 1.88%
viability, T/C [6]: 2.35%
viability, T/C (second compound 0.00949 µM, first compound 0.0316 µM): 4.45%
viability, T/C (second compound 0.00949 µM, first compound 0.1 µM): 3.49%
viability, T/C (second compound 0.00949 µM, first compound 0.316 µM): 2.45%
viability, T/C (second compound 0.00949 µM, first compound 1 µM): 1.99%
viability, T/C (second compound 0.00949 µM, first compound 3.16 µM): 1.87%
viability, T/C (second compound 0.00949 µM, first compound 10 µM): 2.14%
viability, T/C (second compound 0.03 µM, first compound 0.0316 µM): 3.87%
viability, T/C (second compound 0.03 µM, first compound 0.1 µM): 3.3%
viability, T/C (second compound 0.03 µM, first compound 0.316 µM): 2.51%
viability, T/C (second compound 0.03 µM, first compound 1 µM): 1.83%
viability, T/C (second compound 0.03 µM, first compound 3.16 µM): 1.68%
viability, T/C (second compound 0.03 µM, first compound 10 µM): 2.01%
viability, T/C (second compound 0.0949 µM, first compound 0.0316 µM): 3.97%
viability, T/C (second compound 0.0949 µM, first compound 0.1 µM): 3.08%
viability, T/C (second compound 0.0949 µM, first compound 0.316 µM): 2.54%
viability, T/C (second compound 0.0949 µM, first compound 1 µM): 1.86%
viability, T/C (second compound 0.0949 µM, first compound 3.16 µM): 1.59%
viability, T/C (second compound 0.0949 µM, first compound 10 µM): 1.83%
viability, T/C (second compound 0.3 µM, first compound 0.0316 µM): 3.93%
viability, T/C (second compound 0.3 µM, first compound 0.1 µM): 3.43%
viability, T/C (second compound 0.3 µM, first compound 0.316 µM): 2.61%
viability, T/C (second compound 0.3 µM, first compound 1 µM): 1.6%
viability, T/C (second compound 0.3 µM, first compound 3.16 µM): 1.43%
viability, T/C (second compound 0.3 µM, first compound 10 µM): 1.82%
